According to patent publication US9580444B2, “Polycyclic pyrazolinone derivative and herbicide comprising same as effective component thereof” (priority 2013, dated 2017):

These compounds were tested on corn (assay: Test Example-4: phytotoxicity by a foliage treatment after weeds are generated under upland field conditions). Details: 500 g a.i/ha, foliage treatment after emergence, about 14 days after treatment, score 0-5.
Type: in vivo
Summary of the method: (§1)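 Post-emergence foliar treatment: seedlings raised 14 days in watered upland soil are sprayed with the diluted formulation at a predetermined dose, using a spray volume of 4000 L/ha. Effects on weeds and on corn are rated 0–5 roughly two weeks afterwards.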
For `CC#CCOc1cc(-c2c(Cl)n3n(c2=O)CCCC3)c(F)cc1Cl` [Example 1-246], the “Phytotoxicity Corn” value was 1 (Herbicidal effect/phytotoxicity was 10% to 30%).
For `CC#CCOc1cc(-c2c(Cl)n3n(c2=O)CCCC3)c(F)cc1F` [Example 1-115], the “Phytotoxicity Corn” value was 3 (Herbicidal effect/phytotoxicity was 50% to 70%).
In the case of `COCOc1cc(-c2c(Cl)n3n(c2=O)CCCC3)c(F)cc1F` [Example 1-90], the “Phytotoxicity Corn” value is reported as 3 (Herbicidal effect/phytotoxicity was 50% to 70%).
In the case of `COc1cc(-c2c(Cl)n3n(c2=O)CCCC3)c(F)cc1Cl` [Example 1-140], the “Phytotoxicity Corn” value is reported as 2 (Herbicidal effect/phytotoxicity was 30% to 50%).

The compounds below were run on Chenopodium album (common lambsquarters) (assay: Test Example-4: herbicidal effect by a foliage treatment after weeds are generated under upland field conditions). Details: 500 g a.i/ha, foliage treatment after emergence, about 14 days after treatment, score 0-5.
Type: in vivo
Summary of the method: as §1
`CC#CCOc1cc(-c2c(Cl)n3n(c2=O)CCCC3)c(F)cc1Cl` [Example 1-246] was tested, and the “Herbicidal effect Chenopodium album” value was 5 (Herbicidal effect/phytotoxicity was 90% or greater).
For `CC#CCOc1cc(-c2c(Cl)n3n(c2=O)CCCC3)c(F)cc1F` [Example 1-115], the “Herbicidal effect Chenopodium album” value was 5 (Herbicidal effect/phytotoxicity was 90% or greater).
With `COCOc1cc(-c2c(Cl)n3n(c2=O)CCCC3)c(F)cc1F` [Example 1-90] the “Herbicidal effect Chenopodium album” value was 5 (Herbicidal effect/phytotoxicity was 90% or greater).
With `COc1cc(-c2c(Cl)n3n(c2=O)CCCC3)c(F)cc1Cl` [Example 1-140] the “Herbicidal effect Chenopodium album” value was 5 (Herbicidal effect/phytotoxicity was 90% or greater).

What follows are compounds tested on Amaranthus viridis (green amaranthus) in the same assay as above. Details: 500 g a.i/ha, foliage treatment after emergence, about 14 days after treatment, score 0-5.
Type: in vivo
Summary of the method: as §1
With `CC#CCOc1cc(-c2c(Cl)n3n(c2=O)CCCC3)c(F)cc1Cl` [Example 1-246] the “Herbicidal effect Amaranthus viridis” value was 5 (Herbicidal effect/phytotoxicity was 90% or greater).
In the case of `CC#CCOc1cc(-c2c(Cl)n3n(c2=O)CCCC3)c(F)cc1F` [Example 1-115], the “Herbicidal effect Amaranthus viridis” value is reported as 5 (Herbicidal effect/phytotoxicity was 90% or greater).
For `COCOc1cc(-c2c(Cl)n3n(c2=O)CCCC3)c(F)cc1F` [Example 1-90], the “Herbicidal effect Amaranthus viridis” value was 5 (Herbicidal effect/phytotoxicity was 90% or greater).
In the case of `COc1cc(-c2c(Cl)n3n(c2=O)CCCC3)c(F)cc1Cl` [Example 1-140], the “Herbicidal effect Amaranthus viridis” value is reported as 5 (Herbicidal effect/phytotoxicity was 90% or greater).

What follows are compounds tested on Abutilon theophrasti (velvetleaf) in the same assay as above. Details: 500 g a.i/ha, foliage treatment after emergence, about 14 days after treatment, score 0-5.
Type: in vivo
Summary of the method: as §1
In the case of `CC#CCOc1cc(-c2c(Cl)n3n(c2=O)CCCC3)c(F)cc1Cl` [Example 1-246], the “Herbicidal effect Abutilon theophrast” value is reported as 5 (Herbicidal effect/phytotoxicity was 90% or greater).
In the case of `CC#CCOc1cc(-c2c(Cl)n3n(c2=O)CCCC3)c(F)cc1F` [Example 1-115], the “Herbicidal effect Abutilon theophrast” value is reported as 5 (Herbicidal effect/phytotoxicity was 90% or greater).
In the case of `COCOc1cc(-c2c(Cl)n3n(c2=O)CCCC3)c(F)cc1F` [Example 1-90], the “Herbicidal effect Abutilon theophrast” value is reported as 5 (Herbicidal effect/phytotoxicity was 90% or greater).
With `COc1cc(-c2c(Cl)n3n(c2=O)CCCC3)c(F)cc1Cl` [Example 1-140] the “Herbicidal effect Abutilon theophrast” value was 5 (Herbicidal effect/phytotoxicity was 90% or greater).

Each compound was assayed on Scirpus juncoides (bulrush) (assay: Test Example-1: herbicidal effect by a treatment before weeds are generated under submerged conditions). Details: 500 g a.i/ha, pre-emergence treatment, about 15 days after treatment, score 0-5.
Type: in vivo
Summary of the method: (§2)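 Scores (0–5, six stages) reflect visual weed control about 15 days after a same-day water application of the diluted formulated compound to freshly seeded, flooded paddy soil.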
In the case of `CC#CCOc1cc(-c2c(Cl)n3n(c2=O)CCCC3)c(F)cc1Cl` [Example 1-246], the “Herbicidal effect Scirpus juncoides” value is reported as 5 (Herbicidal effect/phytotoxicity was 90% or greater).
`CC#CCOc1cc(-c2c(Cl)n3n(c2=O)CCCC3)c(F)cc1F` [Example 1-115] was tested, and the “Herbicidal effect Scirpus juncoides” value was 5 (Herbicidal effect/phytotoxicity was 90% or greater).
With `COCOc1cc(-c2c(Cl)n3n(c2=O)CCCC3)c(F)cc1F` [Example 1-90] the “Herbicidal effect Scirpus juncoides” value was 5 (Herbicidal effect/phytotoxicity was 90% or greater).
For `COc1cc(-c2c(Cl)n3n(c2=O)CCCC3)c(F)cc1Cl` [Example 1-140], the “Herbicidal effect Scirpus juncoides” value was 5 (Herbicidal effect/phytotoxicity was 90% or greater).

What follows are compounds tested on Eleocharis acicularis (needle spikerush) in the same assay as above. Details: 500 g a.i/ha, pre-emergence treatment, about 15 days after treatment, score 0-5.
Type: in vivo
Summary of the method: as §2
In the case of `CC#CCOc1cc(-c2c(Cl)n3n(c2=O)CCCC3)c(F)cc1Cl` [Example 1-246], the “Herbicidal effect Eleocharis acicularis” value is reported as 5 (Herbicidal effect/phytotoxicity was 90% or greater).
With `CC#CCOc1cc(-c2c(Cl)n3n(c2=O)CCCC3)c(F)cc1F` [Example 1-115] the “Herbicidal effect Eleocharis acicularis” value was 5 (Herbicidal effect/phytotoxicity was 90% or greater).
In the case of `COCOc1cc(-c2c(Cl)n3n(c2=O)CCCC3)c(F)cc1F` [Example 1-90], the “Herbicidal effect Eleocharis acicularis” value is reported as 5 (Herbicidal effect/phytotoxicity was 90% or greater).
`COc1cc(-c2c(Cl)n3n(c2=O)CCCC3)c(F)cc1Cl` [Example 1-140] was tested, and the “Herbicidal effect Eleocharis acicularis” value was 5 (Herbicidal effect/phytotoxicity was 90% or greater).

What follows are compounds tested on other annual broad leaf weeds (Lindernia procumbens, Rotala indica, Elatine triandra) in the same assay as above. Details: 500 g a.i/ha, pre-emergence treatment, about 15 days after treatment, score 0-5.
Type: in vivo
Summary of the method: as §2
For `CC#CCOc1cc(-c2c(Cl)n3n(c2=O)CCCC3)c(F)cc1Cl` [Example 1-246], the “Herbicidal effect Broadleaf weed” value was 5 (Herbicidal effect/phytotoxicity was 90% or greater).
For `CC#CCOc1cc(-c2c(Cl)n3n(c2=O)CCCC3)c(F)cc1F` [Example 1-115], the “Herbicidal effect Broadleaf weed” value was 5 (Herbicidal effect/phytotoxicity was 90% or greater).
`COCOc1cc(-c2c(Cl)n3n(c2=O)CCCC3)c(F)cc1F` [Example 1-90] was tested, and the “Herbicidal effect Broadleaf weed” value was 5 (Herbicidal effect/phytotoxicity was 90% or greater).
For `COc1cc(-c2c(Cl)n3n(c2=O)CCCC3)c(F)cc1Cl` [Example 1-140], the “Herbicidal effect Broadleaf weed” value was 5 (Herbicidal effect/phytotoxicity was 90% or greater).

Each compound was assayed on Monochoria vaginalis (monochoria) in the same assay as above. Details: 500 g a.i/ha, pre-emergence treatment, about 15 days after treatment, score 0-5.
Type: in vivo
Summary of the method: as §2
In the case of `CC#CCOc1cc(-c2c(Cl)n3n(c2=O)CCCC3)c(F)cc1Cl` [Example 1-246], the “Herbicidal effect Monochoria vaginalis” value is reported as 5 (Herbicidal effect/phytotoxicity was 90% or greater).
For `CC#CCOc1cc(-c2c(Cl)n3n(c2=O)CCCC3)c(F)cc1F` [Example 1-115], the “Herbicidal effect Monochoria vaginalis” value was 5 (Herbicidal effect/phytotoxicity was 90% or greater).
In the case of `COCOc1cc(-c2c(Cl)n3n(c2=O)CCCC3)c(F)cc1F` [Example 1-90], the “Herbicidal effect Monochoria vaginalis” value is reported as 5 (Herbicidal effect/phytotoxicity was 90% or greater).
With `COc1cc(-c2c(Cl)n3n(c2=O)CCCC3)c(F)cc1Cl` [Example 1-140] the “Herbicidal effect Monochoria vaginalis” value was 5 (Herbicidal effect/phytotoxicity was 90% or greater).

These compounds were tested on Echinochloa oryzicola (barnyard grass) in the same assay as above. Details: 500 g a.i/ha, pre-emergence treatment, about 15 days after treatment, score 0-5.
Type: in vivo
Summary of the method: as §2
With `CC#CCOc1cc(-c2c(Cl)n3n(c2=O)CCCC3)c(F)cc1Cl` [Example 1-246] the “Herbicidal effect Echinochloa oryzicola” value was 5 (Herbicidal effect/phytotoxicity was 90% or greater).
For `CC#CCOc1cc(-c2c(Cl)n3n(c2=O)CCCC3)c(F)cc1F` [Example 1-115], the “Herbicidal effect Echinochloa oryzicola” value was 5 (Herbicidal effect/phytotoxicity was 90% or greater).
`COCOc1cc(-c2c(Cl)n3n(c2=O)CCCC3)c(F)cc1F` [Example 1-90] was tested, and the “Herbicidal effect Echinochloa oryzicola” value was 5 (Herbicidal effect/phytotoxicity was 90% or greater).
For `COc1cc(-c2c(Cl)n3n(c2=O)CCCC3)c(F)cc1Cl` [Example 1-140], the “Herbicidal effect Echinochloa oryzicola” value was 5 (Herbicidal effect/phytotoxicity was 90% or greater).

These compounds were tested on Cyperus difformis (smallflower umbrella plant) in the same assay as above. Details: 500 g a.i/ha, pre-emergence treatment, about 15 days after treatment, score 0-5.
Type: in vivo
Summary of the method: as §2
For `CC#CCOc1cc(-c2c(Cl)n3n(c2=O)CCCC3)c(F)cc1Cl` [Example 1-246], the “Herbicidal effect Cyperus difformis” value was 5 (Herbicidal effect/phytotoxicity was 90% or greater).
In the case of `CC#CCOc1cc(-c2c(Cl)n3n(c2=O)CCCC3)c(F)cc1F` [Example 1-115], the “Herbicidal effect Cyperus difformis” value is reported as 5 (Herbicidal effect/phytotoxicity was 90% or greater).
For `COCOc1cc(-c2c(Cl)n3n(c2=O)CCCC3)c(F)cc1F` [Example 1-90], the “Herbicidal effect Cyperus difformis” value was 5 (Herbicidal effect/phytotoxicity was 90% or greater).
With `COc1cc(-c2c(Cl)n3n(c2=O)CCCC3)c(F)cc1Cl` [Example 1-140] the “Herbicidal effect Cyperus difformis” value was 5 (Herbicidal effect/phytotoxicity was 90% or greater).
